# Data: PMC11395469, “BpfD Is a c-di-GMP Effector Protein Playing a Key Role for Pellicle Biosynthesis in Shewanella oneidensis” (International Journal of Molecular Sciences, 2024)
# Target: T1, BpfD (Shewanella oneidensis, UniProt Q8E9G0)
# T1 construct: gene SO_4323; BpfDS, cytoplasmic part (S225 to E639) with degenerated GGDEF and EAL domains, Strep-tagged
# T1 sequence (Q8E9G0 225-639): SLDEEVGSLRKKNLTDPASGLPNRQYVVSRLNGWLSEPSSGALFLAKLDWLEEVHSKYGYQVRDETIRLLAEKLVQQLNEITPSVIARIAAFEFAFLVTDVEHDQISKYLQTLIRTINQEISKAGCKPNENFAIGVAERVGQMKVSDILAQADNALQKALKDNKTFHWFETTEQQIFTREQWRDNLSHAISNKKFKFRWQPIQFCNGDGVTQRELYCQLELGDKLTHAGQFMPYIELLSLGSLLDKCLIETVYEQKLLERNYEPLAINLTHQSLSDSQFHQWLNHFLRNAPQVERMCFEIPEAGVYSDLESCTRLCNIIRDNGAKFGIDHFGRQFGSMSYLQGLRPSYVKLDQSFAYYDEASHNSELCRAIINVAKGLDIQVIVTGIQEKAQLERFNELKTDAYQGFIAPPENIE
# Test: isothermal titration calorimetry with purified BpfDS; supported by thermal shift assays
# Assay type: binding
smiles,measurement,value
Nc1nc2c(ncn2[C@@H]2O[C@@H]3CO[P@](=O)(O)O[C@H]4[C@@H](O)[C@H](n5cnc6c(=O)[nH]c(N)nc65)O[C@@H]4CO[P@](=O)(O)O[C@H]3[C@H]2O)c(=O)[nH]1 [c-di-GMP],Kd,4.38 ± 0.8 µM
